Measured values: patent publication US5922691A, “Crystalline maltotetraosyl glucoside, and its production and use” (Kabushiki Kaisha Hayashibara Seibutsu Kagaku Kenkyujo, priority 1994, dated 1999)
In brackets after ≈: the same amount, converted by molar mass.

Legend:
[1] = Reducing power by the Somogyi-Nelson method, represented by DE; assay type: physicochemical; conditions: high-purity lyophilized saccharide preparations
Procedure: These high-purity saccharide preparations were tested for reducing power with the Somogyi-Nelson method and their reducing powers were represented by DE (dextrose equivalent).

[2] = Hygroscopicity when allowed to stand in a room; assay type: physicochemical; conditions: for Hygroscopicity: allowed to stand in a room
Procedure: Fifty parts by weight of 98% maltopentaose, a product commercialized by Hayashibara Biochemical Laboratories, Inc., Okayama, Japan, was dissolved in 200 parts by weight of water while heating and the resultant solution was heated to 40° C. and adjusted to pH 7.0, admixed with a non-reducing saccharide-forming enzyme prepared by the method in Experiment A-2 in an amount of 5 units/g maltopentaose, reacted for 24 hours and followed by heating at 100° C. for 20 minutes to inactivate the enzyme. The resultant solution contained about 90% maltotetraosyl glucoside, and the remains are maltopentaose. The solution was adjusted to 0.1N by adding sodium hydroxide, and heated at 100° C. for 2 hours to decompose reducing saccharides. The solution was decolored with activated carbon and desalted with ion-exchange resins (H^+ and OH^- form) to obtain 98% maltotetraosyl glucoside fraction. The fractions were pooled and the solution was concentrated to give a concentration of 60%, placed in a crystallizer and admixed with a crystalline maltotetraosyl glucoside in an amount of 2% as a seed crystal, and the resultant mixture is cooled gradually while stirring for crystallization to form a massecuit. The massecuit thus obtained was separated from molasses to obtain 99.9% hydrous crystalline maltotetraosyl glucoside in the yield against starting material of about 50%.
The anhydrous crystalline maltotetraosyl glucoside can be favorably used as hygroscopic agent, dehydrating agent and chemical raw material, and further utilizable in a variety of compositions including foods, beverages, cosmetics, pharmaceuticals and shaped bodies, similar to hydrous crystalline maltotetraosyl glucoside in Example A-1.

Solubility in water = assay type: physicochemical; conditions: in 100 ml of 25° C. water; read-out: Solubility (as anhydride)
Procedure: (8) Solubility (as anhydride)
Up to about 1 g each hydrous or anhydrous crystal was soluble in 100 ml of 25° C. water.

mice = test: Acute toxicity in mice upon oral administration; assay type: in vivo; conditions: oral, maximum administrable doses
Procedure: (§1) Hydrous and anhydrous crystalline maltotetraosyl glucosides prepared by the method in Experiment B-1 were tested for acute toxicity in mice upon oral administration.

[3] = Acute toxicity in mice upon oral administration; assay type: in vivo; conditions: mouse, in vivo, oral administration
Procedure: as §1

| DE (dextrose equivalent), reducing power [1] | SMILES | Hygroscopicity [2] | other results |
| --- | --- | --- | --- |
| 0.27 | OC[C@H]1O[C@H](O[C@H]2O[C@H](CO)[C@@H](O[C@H]3O[C@H](CO)[C@@H](O[C@H]4O[C@H](CO)[C@@H](O[C@H]5O[C@H](CO)[C@@H](O[C@H]6O[C@H](CO)[C@@H](O)[C@H](O)[C@H]6O)[C@H](O)[C@H]5O)[C@H](O)[C@H]4O)[C@H](O)[C@H]3O)[C@H](O)[C@H]2O)[C@H](O)[C@@H](O)[C@@H]1O [PIV, α-maltotetraosyl trehalose (or α-maltopentaosyl glucoside)] |  |  |
| 0.23 | OC[C@H]1O[C@H](O[C@H]2O[C@H](CO)[C@@H](O[C@H]3O[C@H](CO)[C@@H](O[C@H]4O[C@H](CO)[C@@H](O[C@H]5O[C@H](CO)[C@@H](O[C@H]6O[C@H](CO)[C@@H](O[C@H]7O[C@H](CO)[C@@H](O)[C@H](O)[C@H]7O)[C@H](O)[C@H]6O)[C@H](O)[C@H]5O)[C@H](O)[C@H]4O)[C@H](O)[C@H]3O)[C@H](O)[C@H]2O)[C@H](O)[C@@H](O)[C@@H]1O [PV, α-maltopentaosyl trehalose (or α-maltohexaosyl glucoside)] |  |  |
|  | OC[C@H]1O[C@H](O[C@H]2O[C@H](CO)[C@@H](O[C@H]3O[C@H](CO)[C@@H](O[C@H]4O[C@H](CO)[C@@H](O[C@H]5O[C@H](CO)[C@@H](O)[C@H](O)[C@H]5O)[C@H](O)[C@H]4O)[C@H](O)[C@H]3O)[C@H](O)[C@H]2O)[C@H](O)[C@@H](O)[C@@H]1O [Example A-2, maltotetraosyl glucoside] | substantially no hygroscopicity |  |
|  | OC[C@H]1O[C@H](O[C@H]2O[C@H](CO)[C@@H](O[C@H]3O[C@H](CO)[C@@H](O[C@H]4O[C@H](CO)[C@@H](O[C@H]5O[C@H](CO)[C@@H](O)[C@H](O)[C@H]5O)[C@H](O)[C@H]4O)[C@H](O)[C@H]3O)[C@H](O)[C@H]2O)[C@H](O)[C@@H](O)[C@@H]1O [Example A-5, maltotetraosyl glucoside] | substantially no hygroscopicity |  |
|  | OC[C@H]1O[C@H](O[C@H]2O[C@H](CO)[C@@H](O[C@H]3O[C@H](CO)[C@@H](O[C@H]4O[C@H](CO)[C@@H](O[C@H]5O[C@H](CO)[C@@H](O)[C@H](O)[C@H]5O)[C@H](O)[C@H]4O)[C@H](O)[C@H]3O)[C@H](O)[C@H]2O)[C@H](O)[C@@H](O)[C@@H]1O [Example A-3, maltotetraosyl glucoside] | substantially no hygroscopicity |  |
|  | OC[C@H]1O[C@H](O[C@H]2O[C@H](CO)[C@@H](O[C@H]3O[C@H](CO)[C@@H](O[C@H]4O[C@H](CO)[C@@H](O[C@H]5O[C@H](CO)[C@@H](O)[C@H](O)[C@H]5O)[C@H](O)[C@H]4O)[C@H](O)[C@H]3O)[C@H](O)[C@H]2O)[C@H](O)[C@@H](O)[C@@H]1O [hydrous crystal, O-α-D-glucopyranosyl-(1→4)-O-α-D-glucopyranosyl-(1→4)-O-α-D-glucopyranosyl-(1→4)-α-D-glucopyranosyl α-D-glucopyranoside] |  | solubility (Solubility in water): ~10000 µg/mL (≈ 12.1 mM); Mortality (mice): no mouse was died; LD50 [3]: ≥ 50000 mg/kg |
|  | OC[C@H]1O[C@H](O[C@H]2O[C@H](CO)[C@@H](O[C@H]3O[C@H](CO)[C@@H](O[C@H]4O[C@H](CO)[C@@H](O[C@H]5O[C@H](CO)[C@@H](O)[C@H](O)[C@H]5O)[C@H](O)[C@H]4O)[C@H](O)[C@H]3O)[C@H](O)[C@H]2O)[C@H](O)[C@@H](O)[C@@H]1O [Example A-1, maltotetraosyl glucoside] | no hygroscopicity |  |
|  | OC[C@H]1O[C@H](O[C@H]2O[C@H](CO)[C@@H](O[C@H]3O[C@H](CO)[C@@H](O[C@H]4O[C@H](CO)[C@@H](O[C@H]5O[C@H](CO)[C@@H](O)[C@H](O)[C@H]5O)[C@H](O)[C@H]4O)[C@H](O)[C@H]3O)[C@H](O)[C@H]2O)[C@H](O)[C@@H](O)[C@@H]1O [Example A-4, maltotetraosyl glucoside] | exhibited hygroscopicity | Water content after standing in a room ([2]; after conversion into hydrous crystal): about 4% |
| 0.83 | OC[C@H]1O[C@H](O[C@H]2O[C@H](CO)[C@@H](O[C@H]3O[C@H](CO)[C@@H](O)[C@H](O)[C@H]3O)[C@H](O)[C@H]2O)[C@H](O)[C@@H](O)[C@@H]1O [PI, α-glucosyl trehalose (or α-maltosyl glucoside)] |  |  |
| 0.35 | OC[C@H]1O[C@H](O[C@H]2O[C@H](CO)[C@@H](O[C@H]3O[C@H](CO)[C@@H](O[C@H]4O[C@H](CO)[C@@H](O)[C@H](O)[C@H]4O)[C@H](O)[C@H]3O)[C@H](O)[C@H]2O)[C@H](O)[C@@H](O)[C@@H]1O [PII, α-maltosyl trehalose (or α-maltotriosyl glucoside)] |  |  |

| SMILES | DE (dextrose equivalent), reducing power [1] | Hygroscopicity [2] | other results |
| --- | --- | --- | --- |
| OC[C@H]1O[C@H](O[C@H]2O[C@H](CO)[C@@H](O[C@H]3O[C@H](CO)[C@@H](O[C@H]4O[C@H](CO)[C@@H](O[C@H]5O[C@H](CO)[C@@H](O)[C@H](O)[C@H]5O)[C@H](O)[C@H]4O)[C@H](O)[C@H]3O)[C@H](O)[C@H]2O)[C@H](O)[C@@H](O)[C@@H]1O [PIII, α-maltotriosyl trehalose (or α-maltotetraosyl glucoside)] | 0.10 |  |  |
